The structures appear in SMILES notation. Where a name gives a salt, the structure may show the parent alone.

Data set [1] concerns influenza A strains. The conditions noted are these: cited from earlier work.
The test system of data set [2] is influenza B strains. The note with it: cited from earlier work.
Data set [3] has as its system human Borna disease virus strain BDV-Hu-H1. The data set can be described thus: Inhibition of BDV infection of young rabbit brain cells after one-hour pre-treatment. The class given is cell-based, Borna disease virus (human strain) in rabbit brain cells. The note with it: one-hour pre-treatment before infection, 100±10 ffu/mL BDV-Hu-H1, read-out: concentration that inhibits the infection of rabbit brain cells with human BDV to the extent of 50%. As to the method:
(§1) Young rabbit brain cells were treated with amantadine sulfate and, in a comparison experiment, with meso-inositol. After this treatment, both samples were treated for 1 hour with a human Borna disease virus strain (100±10 ffu/mL with BDV-Hu-H1 (regarding this strain, refer also to L. Bode, et al., Mol. Psychiatry 1996, 1(3), 200-212)).
(§2) The highest in vitro dose, which permits normal, unimpaired cell growth, is 1.2 μg/mL, relative to the cell system.

Data set [4] has as its system rabbit brain cells. The data set can be described thus: Cell growth tolerance in the rabbit brain cell system. The note with it: relative to the cell system. The data set is classed as cell-based. As to the method:
as §1, §2

Data set [5] deals with human oligodendroglia cells (OL cells). The data set can be described thus: Cell growth of OL cells under amantadine sulfate. The conditions noted are these: 1.2 μg/mL, whole period observed.
Procedure: (§3) On the other side, freshly infected OL cells were treated with the same drug dose for 24 hours and then for a further 6 days after the infection.
Data set [6] deals with BDV-Hu-H1. Nature of the data set: Inhibition of BDV replication in human oligodendroglia (OL) cells. The conditions noted are these: already infected OL cells, 1.2 μg/mL, 6 days.
Procedure: as §3
In data set [7] the test system is activated BDV infection / depression. The data set can be described thus: Treatment of a BDV-infected patient with bipolar disease (severe depressive episode).
For data set [8] the following is noted: cited from earlier work.

With `NC12CC3CC(CC(C3)C1)C2` [amantadine hydrochloride], the “push back of virus production” value in data set [1] is listed as “by a power of 10”. Moreover, the “sensitivity of the virus” value in data set [2] is given as “not sensitive”.

Consider `NC12CC3CC(CC(C3)C1)C2` [amantadine sulfate], for which, in data set [3], the IC50 came out at 0.019 µg/mL. Further, the “highest in vitro dose which permits normal, unimpaired cell growth” value in data set [4] stood at 1.2 µg/mL. Also, the “effect on cell growth” value in data set [5] is listed as “practically not affected”. Besides, in data set [6], the “reduction of the number of infectious viruses (factor)” value is “more than 10,000”. The “Borna virus activity (protein expression in the blood leucocytes)” value in data set [7] (after the 11th day of treatment and also 5 months later) is “could no longer be detected”. For the same molecule, the “course of depression under treatment” value in data set [7] (from the 8th day to the 11th day, 50 to 200 mg daily) is “improved dramatically”. Also, in data set [7] (patient), the “day of treatment after which discharge from hospital was possible” value amounted to 15 days. Moreover, the undesirable side effects result in data set [7] (patient, until now) is on record as “no undesirable side effects”.

For `NC12CC3CC(CC(C3)C1)C2` [amantadine, 1-adamantane amine], the half-lifetime result in data set [8] (in vivo) is on record as “approximately 15 hours”. Further, the “absorption after oral administration” value in data set [8] (oral) is given as “absorbed almost completely”. The “depression-free time without hypomanic rebound effect” value in data set [7] (patient under therapy) came out at 5 months.

Turning to `CC(N)C12CC3CC(CC(C3)C1)C2` (centres unmarked) [rimantadine, 1-adamantyl-(1-amino) ethane], the excretion / metabolism entry in data set [8] (in vivo) is reported as “metabolized in the liver”.

The values are drawn from patent publication US6384083B1, “USE OF ADAMANTANE AMINES OR STRUCTURALLY SIMILAR COMPOUNDS FOR COMBATING BORNA DISEASE VIRUS AND FOR THE PREVENTION AND TREATMENT OF AFFECTIVE DISEASES AND OTHER DISORDERS ASSOCIATED WITH BDV INFECTIONS IN HUMANS AND ANIMALS” (priority 1996, dated 2002).
